The values that follow come from patent publication US10203334B2, “Methods and compositions related to nucleic acid binding assays” (Nubad, LLC, priority 2012, dated 2019).

Series [1] is described as follows: pKa of free probe from pH-dependent absorbance spectra. It counts as physicochemical. Here is the method: The mechanism for change in fluorescence of F-Neo upon binding to A-site rRNA oligonucleotide (SEQ ID No. 1) using UV absorption spectroscopy was investigated. Effect of pH on the absorbance spectra of 3.0 mM fluorescein-neomycin in 20 mM MOPSO, 0.4 mM EDTA, 50 mM NaCl at the indicated pH values were studied.
With increasing pH, fluorescein-neomycin undergoes a transition between mono-anion and di-anion species. Fluorescein-neomycin concentration was 10 μM in 100 mM NaCl, 10 mM SC, 0.5 mM EDTA. As indicated by its absorbance spectra in FIG. 8A, the F-neo transitions from a mono-anion to a di-anion with increasing pH. FIG. 8B compares the absorbance spectra between the mono-anion and di-anion species of fluorescein neomycin. […] The absorbance peak of about 490 nm in FIGS. 8A and 8B is consistent with the phenolate species of fluorescein. The pKa for the equilibrium of the phenol and phenolate forms of F-neo (42a) was measured by evaluating the absorbance spectrum as a function of pH and shown to be 6.84. […] When monitoring the absorption spectrum in the presence of the A-site RNA (SEQ ID No. 1), a reduction in A490 consistent with the change in pKa was observed. […] This shift in pKa causes a change in the fluorescence intensity of F-neo (42a). […]

The subject of series [2] is 16S A-site rRNA (SEQ ID No. 1). In words: Competition dialysis. Format: binding, E. coli. The settings on record: 100 nM ligand, 72 h dialysis, pH 7.0. The source says: Disclosed is the use of fluorescent aminosugar probes such as F-neo (42a) to probe a variety of nucleic acid targets. Competition dialysis was used as a nucleic acid screening technique to illustrate the binding of F-neo (42a) to different nucleic acid structures.
Competition dialysis studies using a fluorescein-neomycin conjugate (F-neo (42a)). […] Comparative binding of F-neo (42a) to 13 different nucleic acid structures was examined which included single strand nucleic acids [poly(dT), poly(A), poly(U)], duplexes [poly(dA).poly(dT), poly(rA).poly(dT), poly(rA).poly(rU), poly(dA).poly(rU), poly(dG).poly(dC), calf thymus], triplexes [poly(dA).2poly(dT), poly(rA).2poly(rU)], i-motif (polydC) and 16S A-site rRNA (SEQ ID No. 1). The amount of F-neo (42a) bound to each nucleic acid is shown as a bar graph in FIG. 13. Because all nucleic acids are dialyzed simultaneously in the same ligand solution, the amount of bound F-neo (42a) is directly proportional to its affinity for each nucleic acid. […] 200 μL of different nucleic acids (7.5 μM per monomeric unit of each polymer) was dialyzed for 72 h with 400 mL 100 nM ligand in 6 mM Na2HPO4, 2 mM NaH2PO4, 1 mM Na2EDTA, pH 7.0 and various Na+ concentrations as indicated.
F-neo (42a) prefers to bind to 16S A-site rRNA yielding a bound ligand concentration of 85 nM in 100 mM Na^+, 50 nM in 150 mM Na^+, and 15 nM in 200 mM Na^+ is shown in FIG. 15.

Series [3] deals with E. coli rRNA A-site oligonucleotide (SEQ ID NO. 1). In words: Fluorescence titration of F-neo with bacterial rRNA A-site oligonucleotide and titration of the complex with neomycin. It counts as binding. The settings on record: 1:1 stoichiometric ratio of conjugate and A-site oligonucleotide; pH 7.0. The text has this: This compound F-neo or 42a is a fluorescein conjugate coupled through the 5″ OH position of the ribose ring of neomycin B (H. Xi, E. Davis, N. Ranjan, L. Xue, D. Hyde-Volpe, D. P. Arya, Thermodynamics of nucleic Acid “shape readout” by an aminosugar, Biochemistry. 50 (2011) 9088-9113). E. coli rRNA Asite oligonucleotide (SEQ ID NO. 1, […]) is a synthetic RNA sequence 27 bases long designed to mimic the ribosomal A-site. The A-site oligonucleotide (SEQ ID NO. 1) is titrated into F-neo (42a) to give a concentration dependent loss of fluorescence of F-neo (42a). […]
The effect of bacterial A-site oligonucleotide (SEQ ID No. 1) on the fluorescence emission intensity of a fluorescein-neomycin conjugate (F-neo or 42a) is recorded in FIG. 2. […]
The F-neo (42a) can be competitively displaced from the A-site RNA oligonucleotide (SEQ ID No. 1) by the addition of non-fluorescent RNA binding drugs. Titrating neomycin into the F-neo (42a):A-site complex increases the fluorescence in a dose dependent manner that saturates at a 1:1 stoichiometric ratio of drug-to-complex. Additionally, a strong signal window, measured as an increase in fluorescence is present at a 3:1 molar ratio, and a maximum change in fluorescence at approximately 10:1 molar ratio. […] Fluorescence emission intensity (517 nm) of 0.3 mM A-site oligonucletide/F-neo complex solution increased with increasing concentration of neomycin. […]

In general, pKa refers to the pH at which an ionisable group is half protonated.

Like-named read-outs stand apart in the source and are kept apart here.

As to `NCC1O[C@H](OC2C(O)C(OC3C(O)[C@H](N)CC(N)[C@H]3O[C@H]3OC(CN)[C@@H](O)C(O)C3N)O[C@@H]2CSCCNC(=O)CCSCC(=O)Nc2ccc(-c3c4ccc(=O)cc-4oc4cc(O)ccc34)c(C(=O)O)c2)C(N)C(O)[C@@H]1O` (stereo partly drawn) [F-neo (42a), Neomycin-Fluorescein Conjugate], the pKa stood at 6.57 in series [1] (buffer: 100 mM NaCl, free, 10 μM, 100 mM NaCl, 10 mM SC, 0.5 mM EDTA at 25° C., read-out: pKa); 6.84 in series [1] (free probe, absorbance spectrum as a function of pH, read-out: pKa for the equilibrium of the phenol and phenolate forms). Besides, the bound ligand concentration worked out at 85 nM in series [2] (100 mM Na^+), 50 nM in series [2] (150 mM Na^+) and 15 nM in series [2] (200 mM Na^+). Besides, in series [3], the “reduction in fluorescence emission intensity” value worked out at 3 fold.
